The values below come from patent publication US20150031739A1, “PANOBINOSTAT FOR USE IN THE TREATMENT OF HIV-1” (Aarhus Universitet, priority 2012, published 2015).

The subject of assay [1] is cell-associated unspliced HIV RNA. In words: Cell associated unspliced Gag HIV RNA in CD4+ T cells of treated patients. It counts as in vivo, HIV-1. The method, then:
RNA purified from 1 million CD4+ T cells was treated with DNAse and split in 4 portions. Preparation of cDNA was performed by Superscript III Reverse Transcriptase as described by the manufacturer using both Oligo dT and random hexamer priming (Life Technologies, DK). Each cDNA sample was assayed in duplicate in a semi-nested real-time PCR quantification yielding eight replicates for each patient sample.
First round amplification was carried out with primers 5′-[…]-3′ (SEQ ID NO: 1) and 5′-[…]-3′ (SEQ ID NO: 2) with AmpliTaq gold mastermix (Life Technologies, DK) for a limited 15 cycles and input of 5 uL cDNA.
PCR conditions were as follows: A denaturation step at 95° C. for 10 minutes followed by 15 cycles of 20 seconds at 94° C., 40 seconds at 55° C. and 40 seconds at 72° C. Second round real-time PCR was performed using SYBR green mastermix (Life Technologies, DK) and primers 5′-[…]-3′ (SEQ ID NO: 3) and 5′-[…]-3′ (SEQ ID NO: 4) on a Bio-Rad CFX96™ Real-time PCR Platform. PCR conditions were as follows: A denaturation step at 95° C. for 10 minutes followed by 45 cycles of 20 seconds at 94° C., 40 seconds at 55° C., 40 seconds at 72° C. Subsequently, a dissociation curve was obtained by heating from 65° C. to 95° C. with a 0.5° C. increment for 5 seconds. A serial diluted standard allow for relative quantification of HIV Gag RNA levels.

In another assay the test system is histone H3 acetylation. In words: Histone H3 acetylation in PBMC's of patients during panobinostat administration. It counts as in vivo, human. The procedure: One million freshly isolated PBMC's harvested from CPT vacutainers (BD Bioscience, UK) were washed in ice-cold PBS with 1% FBS. Subsequently cells were fixed in 200 uL 1% paraformaldehyde for 15 min on ice and afterwards washed in PBS. […] Following a wash in FACS buffer (PBS/2% FBS), cells were blocked in PBS with 10% FBS for 20 min at RT. For each patient one sample was incubated for 1 hr at RT with either 5 uL primary anti-acetyl histone H3 antibody (Millipore, DK) or 5μ isotype control (final antibody concentration: 10 μg/m). Subsequently, cells were washed in FACS buffer and incubated with 5 uL secondary (Alexa-Flour 488 donkey anti-rabbit IgG from Life Technologies, DK) for 1 hr in the dark at RT (final antibody concentration: 6 μg/m). Lastly, cells were washed in FACS buffer, resuspended in PBS and analyzed on a FACS Canto II.

Assay [2] deals with HIV proviral DNA in CD4+ T cells. Nature of the assay: Total HIV proviral DNA in purified CD4+ T cells of treated patients. In kind it is in vivo, HIV-1. The method, then:
DNA was isolated from 1×10^6 CD4+ T cells using AllPrep DNA/RNA Mini kit according to the manufacturer's specifications (Qiagen, Denmark). Cell equivalents were based on RNAseP amplification. The following primers were used to target human RNAseP 5′-[…]-3′ (forward) (SEQ ID NO: 5) and 5′-[…]-3′ (reverse) (SEQ ID NO: 6). Amplification reactions were carried out in duplicates with a primer concentration of 0.5 μM, 10 μL SsoFast™ EvaGreen® Supermix and 1 μL 100-fold diluted DNA as template in 20 μl total volume.
Using the RNAsePgenome copy number, sample DNA was diluted to 50,000 cell equivalents per PCR reaction. To determine the frequency of CD4+ T cells carrying HIV DNA, we prepared a standard curve obtained by serially diluted DNA from 8E5 cells (carrying one integrated provirus per genome) combined with DNA from HIV-negative PBMCs (305, 153, 76, 38, 19, 9 HIV DNA copies and 100,000 HIV negative cell equivalents per well). The following primers were used to target HIV-DNA: 5′-[…]-3′ (forward) (SEQ ID NO: 7) and 5′-[…]-3′ (reverse) (SEQ ID NO: 8).
The amplification reaction was carried out in triplicates with a primer concentration of 0.5 μM, 10 μL SsoFast™ EvaGreen® Supermix and 100,000 genomes as template in 20 μl total volume on a Bio-Rad CFX96™ Real-time PCR Platform. PCR conditions were as follows: A denaturation step at 95° C. followed by 45 cycles of 10 seconds at 95° C. and 25 seconds at 62° C. Subsequently a melt curve was obtained heating from 65° C. to 95° C. with a 0.5° C. increment for 5 seconds. Cycle cut off was set at 39 cycles. Amplification products were verified by dissociaton curve. Copy number of HIV DNA per 1×10^6 CD4+ T cells was calculated from the real-time PCR results.
From the HIV DNA standard curve we set a lower limit of quantification of 12 copies HIV DNA/10^6 CD4+ T cells.
Samples were drawn from two patients at Baseline (prior to initiation of panobinostat treatment) and after 4 weeks and 8 weeks cyclic panobinostat treatment 20 mg TIW every other week.

In assay [3] the test system is latently infected cell lines (U1 and ACH2). In words: HIV-1 expression from latently infected cell lines, statements for both lines. It counts as cell-based. The procedure:
(§1) HIV-1 activation from U1 cells: U1 cells (obtained through the NIH AIDS Reagent Program) are seeded at 2*10^5/well in a 96-well format in 100 uL RPMI media supplemented with 10% heat inactivated Foetal Bovine Serum and 1% penicillin/streptomycin. HDACi and PMA as positive control is added at desired concentrations in 100 uL. Identical DMSO levels is used for untreated control. All stimulations are performed in triplicate. 48 hours later supernatant is harvested and left for inactivation in 1% Empegen for 1 hour. Levels of HIV-1 p24 gag levels is determined by ELISA as described by the manufacturer (Aalto Bioreagents, Dublin, Ireland).
as §1, with “ACH2” for “U1”, “1*10^5/well” for “2*10^5/well”, “Samples are diluted 1/500 and levels” for “Levels”, “gag” for “gag levels”

Take `Cc1[nH]c2ccccc2c1CCNCc1ccc(/C=C/C(=O)NO)cc1` [LBH589, N-Hydroxy-3-[4-[2-(2-methyl-1H-indol-3-yl)ethylaminomethyl]phenyl]-2(E)-propenamide]: the “cell-associated unspliced Gag HIV RNA” value was 178 Gag HIV RNA copies in assay [1] (patient A, first off/on cycle analyzed, off treatment); 323 Gag HIV RNA copies in assay [1] (patient A, first off/on cycle analyzed, on treatment); 57 Gag HIV RNA copies in assay [1] (patient A, second off/on cycle analyzed, off treatment); 362 Gag HIV RNA copies in assay [1] (patient A, second off/on cycle analyzed, on treatment); 504 Gag HIV RNA copies in assay [1] (patient B, first off/on cycle analyzed, off treatment); 841 Gag HIV RNA copies in assay [1] (patient B, first off/on cycle analyzed, on treatment). Also, the “cell-associated unspliced Gag HIV RNA” value is 892 Gag HIV RNA copies in assay [1] (patient B, second off/on cycle analyzed, off treatment) and 1196 Gag HIV RNA copies in assay [1] (patient B, second off/on cycle analyzed, on treatment). In addition, the “average increase of histone H3 acetylation from baseline” value with histone H3 acetylation (day 4, eight patients, PBMC's, panobinostat 20 mg TIW every other week) was found to be 267%. Besides, in the assay with histone H3 acetylation (off-treatment weeks), the “levels of histone acetylation” value is given as “dropped to near baseline levels”. Besides, the “proviral DNA level” value in assay [2] (patient A, end of treatment (8 weeks), baseline 46 copies/10^6 CD4+ T cell) is “remained low”; in assay [2] (patient A, first two treatment cycles (4 weeks), 20 mg TIW every other week, baseline 46 copies/10^6 CD4+ T cell, lower limit of quantification 12 copies), “dropped below detection”; in assay [2] (patient B, after 4 weeks, baseline 173 copies/10^6 CD4+ T cells), 125 copies/10^6 CD4+ T cell; in assay [2] (patient B, end of treatment (8 weeks), baseline 173 copies/10^6 CD4+ T cells, lower limit of quantification 12 copies), “undetectable”. The “rank order of induced HIV-1 expression” value in assay [3] (direct comparison at the concentration obtained with clinical use) was “LBH589>ITF2357 and PXD101>SAHA”. Also, the “rank order of potency when stimulating HIV-1 expression” value in assay [3] (latently infected cell lines) is “LBH589>ITF2357 and PXD101>SAHA>VPA”. Further, in assay [3] (latently infected cell lines U1 and ACH2), the “concentration range in which HIV-1 expression is induced” value was in the range of 8 to 32 nM.
